Like-named read-outs stand apart in the source and are kept apart here.

We go through three molecules from US11213590B2, “SSTR-targeted conjugates and particles and formulations thereof” (priority 2016, dated 2022).

One series relates to NCI-H69 xenograft. The series can be described thus: NCI-H69 lung xenograft efficacy, formulations and schedules. In kind it is in vivo, mice. The settings on record: cisplatin iv 5.0 mg/kg 1x/week combined with etoposide ip 8.0 mg/kg 3x/week over two weeks (SOC); Day 21. The protocol: A further NCI-H69 study design included Conjugate 57 dosed iv at 1.0 mg/kg formulated in propylene glycol (PG), 1.0 mg/kg formulated in Solutol HS15, 0.5 mg/kg formulated in Solutol HS15 dosed twice per week, and 0.33 mg/kg formulated in Solutol HS15 dosed three times per week. A comparator group was dosed with SOC cisplatin dosed iv at 5.0 mg/kg once per week/etoposide dosed ip at 8.0 mg/kg three times per week over two weeks. A negative control vehicle was dosed with the Solutol HS 15 vehicle. All groups contained 10 animals.

The test system of the next series is NCI-H727. The series can be described thus: cells. In kind it is cell-based, human. The note with it: Homo sapiens, read-out: Proliferation Inhibition IC50 of DM1. The protocol: (§1) The purpose of this study was to determine the receptor-dependent inhibition of proliferation in vitro by the somatostatin targeting conjugate Conjugate 57 and determine the sensitivity to DM1 in the human SSTR2 expressing cancer cell lines: NCI-H69, NCI-H82, NCI-H727 and HCC-33. Cells were incubated with Conjugate 57 for 6 hours, in the presence or absence of an excess of octreotide, a somatostatin analogue. A three-fold serial dilution of Conjugate 57 was used for a total of ten concentration points. After treatment, cells were washed, incubated for an additional period of time, either 72 or 96 hours and proliferation was measured using the CellTiter-Glo® Luminescent Cell Viability Assay. The IC50 of Conjugate 57 was used to determine the inhibiting activity in proliferation assays. To determine DM1 sensitivity a similar method to the Conjugate 57 assay was employed with the additional incubation time points of 30 minutes, 1, 2, and 4 hours and the exclusion of the pre-treatment with octreotide. DM1 effect from the most to least sensitive cell line was determined to be: NCI-H69>HCC-33>NCI-H82>NCI-H727 (Table 5B). […] The addition of excess octreotide (100 μM) competes with Conjugate 57 for binding to the SSTR2 receptor. […] In the NCI-H69 experiments, pre-incubation with an excess of octreotide modestly diminished the activity of Conjugate 57 by 1.6 and 2.4 fold, depending on the assay conditions. In the HCC-33 cell line, activity of Conjugate 57 was 3.2 (±1.4) times higher when dosed alone, compared to when the cells were pre-incubated with octreotide. The small but measureable changes in Conjugate 57 activity in the presence of excess octreotide seen in the NCI-H69 and HCC-33 cell lines supports the receptor dependence of the Conjugate 57 antiproliferative effect seen in vitro. In summary, although all the cell lines tested in these experiments express the SSTR2 protein, they have different levels of sensitivity to the Conjugate 57 conjugate of which the DM1 sensitivity may be a contributing factor.

The next series has as its system NCI-H82. The series can be described thus: cells. The series is classed as cell-based, human. The settings on record: Homo sapiens, read-out: Proliferation Inhibition IC50 of DM1. As for the experimental part:
as §1

In another series the test system is NCI-H69. The series can be described thus: cells. In kind it is cell-based, human. The settings on record: Homo sapiens, read-out: Proliferation Inhibition IC50 of DM1. As for the experimental part:
as §1

For another series, the target named is CYP3A4 (Homo sapiens, UniProt P08684). The note with it: KADCYLA package insert; to a lesser extent by CYP3A5; cited from earlier work.
The subject of the next series is HCC-33. The experiment in a line: Inhibition of proliferation, CellTiter-Glo, HCC-33. The note with it: Homo sapiens, HCC33, 6 h incubation, n = 3, read-out: Proliferation Inhibition IC50 of DM1. The series is classed as cell-based, human. The protocol: as §1
(In ATP-based viability assays light output follows the ATP content of the culture.)

For series [1] the following is noted: cited from earlier work.

CYP3A4, sequence (P08684 whole entry): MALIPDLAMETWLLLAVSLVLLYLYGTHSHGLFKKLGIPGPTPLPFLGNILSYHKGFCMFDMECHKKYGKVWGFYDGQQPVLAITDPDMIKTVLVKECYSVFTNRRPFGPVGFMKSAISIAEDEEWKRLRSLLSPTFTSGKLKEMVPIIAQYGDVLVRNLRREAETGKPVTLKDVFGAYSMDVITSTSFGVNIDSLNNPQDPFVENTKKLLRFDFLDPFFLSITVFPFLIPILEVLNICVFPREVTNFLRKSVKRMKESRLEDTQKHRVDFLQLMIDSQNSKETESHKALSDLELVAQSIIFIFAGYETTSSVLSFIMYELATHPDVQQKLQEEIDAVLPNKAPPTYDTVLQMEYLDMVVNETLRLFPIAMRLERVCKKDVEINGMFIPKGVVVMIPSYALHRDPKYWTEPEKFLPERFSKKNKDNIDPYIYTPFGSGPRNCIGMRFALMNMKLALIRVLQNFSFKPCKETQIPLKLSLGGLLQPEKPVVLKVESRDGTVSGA

Regarding `N.N.[Cl][Pt][Cl]` [Cisplatin, reference compound], in the series on NCI-H69 xenograft, the “MTV (Mean Tumor Volume)” value worked out at 229 mm3 and the “TGI (Tumor Growth Inhibition)” value stood at 84%.
For `COc1cc2cc(c1Cl)N(C)C(=O)C[C@H](OC(=O)[C@H](C)N(C)C(=O)CCS)C1(C)O[C@H]1[C@H](C)[C@@H]1C[C@@](O)(NC(=O)O1)[C@H](OC)/C=C/C=C(\C)C2` (stereo partly drawn) [DM1, mertansine (DM1), reference compound], the IC50 is 1160 nM in the series with NCI-H727 (0.5 h, 30 min incubation); 665 nM in the series with NCI-H727 (1 h incubation); 474 nM in the series with NCI-H727 (2 h incubation); 380 nM with NCI-H727 (4 h incubation); 534 nM in the series on NCI-H727 (6 h incubation); 171 nM in the series on NCI-H82 (0.5 h, 30 min incubation). The IC50 in the series on NCI-H82 (1 h incubation) was determined as 232 nM; with NCI-H82 (2 h incubation) it was 183 nM; in the series on NCI-H82 (4 h incubation) it was 188 nM; in the series on NCI-H82 (6 h incubation), 56 nM; in the series with NCI-H69 (0.5 h, 30 min incubation) it was 15 nM; in the series with NCI-H69 (1 h incubation) it was 8 nM. The IC50 stood at 14 nM with NCI-H69 (2 h incubation), 11 nM in the series on NCI-H69 (4 h incubation), 6 nM in the series on NCI-H69 (6 h incubation) and 34 nM in the series with HCC-33. At CYP3A4, the “metabolizing enzymes in vitro” value is “metabolized in vitro mainly by CYP3A4”.
As for `C[C@@H](O)[C@@H]1NC(=O)[C@H](CCCCN)NC(=O)[C@@H](Cc2c[nH]c3ccccc23)NC(=O)[C@H](Cc2ccccc2)NC(=O)[C@@H](NC(=O)[C@@H](Cc2ccccc2)NC(=O)CN(CCN(CCN(CC(=O)O)CC(=O)O)CC(=O)O)CC(=O)O)CSSC[C@@H](C(=O)N[C@H](CO)[C@@H](C)O)NC1=O` [^111In pentetreotide, metal not drawn], the “hormonal effect relative to octreotide” value in series [1] (according to the manufacturer) is recorded as 1/10. Further, in series [1] (human, in vivo), the “adverse reactions, frequency” value is on record as less than 1%.
